These results are taken from PMC5546919 (The Journal of organic chemistry, 2010).

Type in all cases: biochemical
For assay [1], the target named is T1, human 20S proteasome, caspase-like (C-L) activity (Homo sapiens, UniProt P28072).
T1 sequence (P28072 35-239): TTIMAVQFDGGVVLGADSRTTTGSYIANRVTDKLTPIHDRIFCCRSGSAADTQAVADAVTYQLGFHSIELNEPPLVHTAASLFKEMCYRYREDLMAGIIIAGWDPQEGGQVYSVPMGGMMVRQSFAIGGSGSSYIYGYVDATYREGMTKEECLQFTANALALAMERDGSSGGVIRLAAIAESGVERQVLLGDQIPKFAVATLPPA
In words: Proteasome-Glo luminogenic assay, C-L substrate.

In assay [2] the target is T2, human 26S proteasome, caspase-like (C-L) activity (Homo sapiens, UniProt P28072).
T2 sequence (P28072 35-239): T1 sequence (P28072 35-239)
The assay is described as follows: Proteasome-Glo luminogenic assay, C-L substrate.

Assay [3] concerns the target T3, human 26S proteasome, trypsin-like (T-L) activity (Homo sapiens, UniProt Q99436).
T3 sequence (Q99436 44-277): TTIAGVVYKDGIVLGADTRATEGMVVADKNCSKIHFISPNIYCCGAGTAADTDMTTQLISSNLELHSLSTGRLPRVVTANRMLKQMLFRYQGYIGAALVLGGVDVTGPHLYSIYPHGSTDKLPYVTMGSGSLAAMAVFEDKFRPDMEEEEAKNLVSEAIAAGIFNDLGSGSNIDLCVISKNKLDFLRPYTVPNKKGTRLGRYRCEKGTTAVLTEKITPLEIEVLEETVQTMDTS
The assay is described as follows: Proteasome-Glo luminogenic assay, T-L substrate.

The target of assay [4] is T4, human 20S proteasome, trypsin-like (T-L) activity (Homo sapiens, UniProt Q99436).
T4 sequence (Q99436 44-277): T3 sequence (Q99436 44-277)
In words: Proteasome-Glo luminogenic assay, T-L substrate.

The target of assay [5] is T5, human 20S proteasome, chymotrypsin-like (CT-L) activity (Homo sapiens, UniProt P28074).
T5 sequence (P28074 60-263): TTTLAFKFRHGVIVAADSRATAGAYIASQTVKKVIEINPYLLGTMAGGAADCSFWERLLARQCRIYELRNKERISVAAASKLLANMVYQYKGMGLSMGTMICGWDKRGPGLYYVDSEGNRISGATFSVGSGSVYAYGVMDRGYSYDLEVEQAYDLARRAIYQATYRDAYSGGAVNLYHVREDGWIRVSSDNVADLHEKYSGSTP
The assay is described as follows: Proteasome-Glo luminogenic assay, CT-L substrate.

The target in assay [6] is T6, human 26S proteasome, chymotrypsin-like (CT-L) activity (Homo sapiens, UniProt P28074).
T6 sequence (P28074 60-263): T5 sequence (P28074 60-263)
The assay is described as follows: Proteasome-Glo luminogenic assay, CT-L substrate.

For `C[C@@]12OC(=O)[C@]1([C@@H](O)[C@@H]1C=CCCC1)NC(=O)[C@@H]2CCCCl` [compound 54, (−)-homosalino], the IC50 worked out at 144 ± 12 nM in assay [1], 188 ± 3 nM in assay [2], 125 ± 30 nM in assay [3] and 118 ± 28 nM in assay [4].
In the case of `CCCCCCC1C(=O)NC2(C(O)C3C=CCCC3)C(=O)OC12C` (racemic) [(±)-2, rac-cinnabaramide A], the IC50 turned out to be 125 ± 12 nM in assay [1], 2.8 ± 0.6 nM in assay [5], 260 ± 29 nM in assay [4] and 2.2 ± 0.04 nM in assay [6].
Regarding `C[C@@]12OC(=O)[C@]1([C@@H](O)[C@@H]1C=CCCC1)NC(=O)[C@@H]2CCCl` [1a, (−)-salino A], the IC50 in assay [1] came out at 111 ± 22 nM; in assay [2] it was 156 ± 18 nM; in assay [3], 37 ± 16 nM; in assay [4], 39 ± 7 nM.

As a reminder, the IC50 is the concentration that gives 50% inhibition. A lower IC50 goes with inhibition by little substance.
